# Assay results reported in patent US9220672B2, “Peptide for use in the treatment of skin conditions” (ORGANOBALANCE GMBH, priority 2011, dated 2015).
# Tests used:
# Assay type in all cases: cell-based
# [1] = tested on: S. aureus; assay: S. aureus in vitro liquid assay (microtiter plate, OD600nm); conditions: 1 mg/ml, SCD-bouillon (1:2), pH 6.5, vs control devoid of additive
# Procedure: An S. aureus in vitro liquid assay was performed on a Microtiter plate having wells with a respective volume of 200 μl. To this effect, a 24 h cell culture of S. aureus was diluted 1:500 thus affording an optical density OD600nm of 0.05 in SCD-bouillon (1:2). One of the samples used in the experiment further contained the inventive tetrapeptide H-Lys(H-Asp-NH2)-Ala-Glu-NH2 in a concentration of 1 mg/ml. The pH of the samples was 6.5.
# [2] = tested on: S. epidermidis; assay: S. epidermidis in vitro liquid assay (microtiter plate, OD600nm); conditions: SCD-bouillon (1:2), pH 6.5, vs control devoid of additive
# Procedure: A Microtiter plate having wells with a respective volume of 200 μl was used for the S. epidermidis in vitro liquid assay. To this effect, a 24 h cell culture of S. epidermidis was diluted 1:200 thus affording an optical density OD600nm of 0.06 in SCD-bouillon (1:2). The samples used in the experiment further contained the inventive tetrapeptide H-Lys(H-Asp-NH2)-Ala-Glu-NH2 in respective concentrations of 1 mg/ml and 0.2 mg/ml. As control assay, samples containing 1 mg/ml of a mixture containing Alanine, Glutamine, Lysine, and Asparagine in equal parts and samples containing no further components in addition to S. epidermidis were respectively employed. The pH of all of the samples was 6.5.
# [3] = tested on: S. epidermidis; assay: S. epidermidis growth stimulation, in-vitro hole plate assay on tellurite-TSA; conditions: 40 μl of 1 mg/ml solution per well, 35° C., 24 h, vs water control
# Procedure: To this effect, an S. epidermidis growth simulation assay was employed, using potassium tellurite as the growth indicator, observed in the assay as brown zones. An S. epidermidis log phase culture at 1:200 (containing approximately 1×10^7 cfu/ml of bacteria) was used as the working culture in the experiment.
# The working culture was plated onto tellurite-TSA, after which 5 mm diameter holes were respectively punched into the agar for forming the testing wells. 40 μl of a solution containing the tetrapeptide at a concentration of 1 mg/ml were then added to a first and second well, and the same volume of water was added as the control to a third well. The Petri dish was then incubated at 35° C. for 24 h.
compound,measurement,setting,value
CC(NC(=O)C(N)CCCCNC(=O)CC(N)C(N)=O)C(=O)NC(CCC(=O)O)C(N)=O (stereo not drawn) [H-Lys(H-Asp-NH2)-Ala-Glu-NH2],growth of S. aureus (optical density OD600nm over incubation time),[1],clearly inhibited
same,growth of S. epidermidis (optical density OD600nm over incubation time),[2]; 0.2 mg/ml,stimulation is already apparent
same,growth of S. epidermidis (optical density OD600nm over incubation time),[2]; 1 mg/ml,clearly stimulates the growth
same,growth of S. epidermidis (tellurite growth indicator zone around well),[3],able to stimulate the growth
same,growth of S. epidermidis (tellurite growth indicator zone around well),[3]; listed as inventive tetrapeptide,clearly stimulated
